This note sets out measurements from ChEMBL document CHEMBL4373717, “Coumarin-containing hybrids and their anticancer activities” (Eur J Med Chem, 2019).

The structures appear in SMILES notation. Converted amounts (≈) assume the structure as drawn.

The nature of assay [1]: Growth inhibition of human KATO III cells. The class given is functional.
The subject of assay [2] is OVCAR-8. The assay can be described thus: Growth inhibition of human OVCAR8 cells. In kind it is functional.
The subject of assay [3] is HepG2. Briefly: Growth inhibition of human HepG2 cells. In kind it is functional.
For assay [4], the system named is K562. Briefly: Growth inhibition of human K562 cells. In kind it is functional.
In assay [5] the test system is WiDr. Briefly: Growth inhibition of human WiDr cells. The class given is functional.
The subject of assay [6] is BXPC-3. Briefly: Growth inhibition of human BxPC3 cells. The class given is functional.
Assay [7] has as its system SNU1. The assay can be described thus: Growth inhibition of human SNU1 cells. In kind it is functional.
The test system of assay [8] is T-24. Briefly: Growth inhibition of human T24 cells. The class given is functional.
Assay [9] relates to MCF7. The assay can be described thus: Growth inhibition of human MCF7 cells. In kind it is functional.
In assay [10] the test system is SK-OV-3. The assay can be described thus: Growth inhibition of human SKOV3 cells. In kind it is functional.
In assay [11] the test system is SN12C. Briefly: Growth inhibition of human SN12C cells. In kind it is functional.
Assay [12] has as its system PANC-1. Briefly: Growth inhibition of human PANC1 cells. The class given is functional.
Assay [13] has as its system AGS. The assay can be described thus: Growth inhibition of human AGS cells. In kind it is functional.
Assay [14] relates to MDA-MB-231. The assay can be described thus: Potency index, ratio of doxorubicin IC50 to compound IC50 for cytotoxicity against human MDA-MB-231 cells in normoxic condition. In kind it is functional.
Assay [15] concerns MDA-MB-231. The assay can be described thus: Potency index, ratio of doxorubicin IC50 to compound IC50 for cytotoxicity against human MDA-MB-231 cells in hypoxic condition. The class given is functional.
In assay [16] the test system is MDA-MB-231. The assay can be described thus: Cytotoxicity against human MDA-MB-231 cells assessed as reduction in cell viability after 24 hrs by MTT assay. In kind it is functional, cell-based. On the technique in general: Tetrazolium assays rely on reduction of a dye to a coloured formazan, in cell work by metabolically active cells.
Assay [17] concerns MDA-MB-231. Briefly: Potency index, ratio of cisplatin IC50 to compound IC50 for cytotoxicity against human MDA-MB-231 cells in hypoxic condition. The class given is functional.
Assay [18] relates to MDA-MB-231. The assay can be described thus: Potency index, ratio of cisplatin IC50 to compound IC50 for cytotoxicity against human MDA-MB-231 cells in normoxic condition. The class given is functional.
Assay [19] concerns A549. Briefly: Growth inhibition of human A549 cells. The class given is functional.
The test system of assay [20] is NCI-H1650. Briefly: Growth inhibition of human NCI-H1650 cells. The class given is functional.
The test system of assay [21] is NCI-H460. Briefly: Growth inhibition of human H460 cells. In kind it is functional.
Assay [22] concerns OVCAR-4. Briefly: Anticancer activity against human OVCAR4 cells. In kind it is functional.
For assay [23], the system named is SNB-75. Briefly: Anticancer activity against human SNB75 cells. In kind it is functional.
Assay [24] concerns SF-268. Briefly: Growth inhibition of human SF268 cells. The class given is functional.
For assay [25], the system named is NCI-H460. Briefly: Growth inhibition of human NCI-H460 cells. In kind it is functional.
Assay [26] relates to MCF7. The assay can be described thus: Potency index, ratio of doxorubicin GI50 to compound GI50 for growth inhibition of human MCF7 cells. In kind it is functional.
In assay [27] the test system is SF-268. The assay can be described thus: Potency index, ratio of doxorubicin GI50 to compound GI50 for growth inhibition of human SF268 cells. In kind it is functional.
Assay [28] deals with NCI-H460. The assay can be described thus: Potency index, ratio of doxorubicin GI50 to compound GI50 for growth inhibition of human NCI-H460 cells. In kind it is functional.
Assay [29] relates to A549. The assay can be described thus: Potency index, ratio of doxorubicin IC50 to compound IC50 for anticancer activity against human A549 cells. In kind it is functional.
Assay [30] deals with HeLa. Briefly: Potency index, ratio of doxorubicin IC50 to compound IC50 for anticancer activity against human HeLa cells. The class given is functional.
Assay [31] deals with HeLa. Briefly: Anticancer activity against human HeLa cells by MTT assay. The class given is functional, cell-based.
Assay [32] concerns K562. The assay can be described thus: Potency index, ratio of doxorubicin IC50 to compound IC50 for anticancer activity against human K562 cells. The class given is functional.
Assay [33] deals with A549. Briefly: Anticancer activity against human A549 cells by MTT assay. In kind it is functional, cell-based.
For assay [34], the system named is MDA-MB-231. Briefly: Potency index, ratio of doxorubicin IC50 to compound IC50 for anticancer activity against human MDA-MB-231 cells. The class given is functional.
In assay [35] the test system is MDA-MB-231. Briefly: Anticancer activity against human MDA-MB-231 cells by MTT assay. In kind it is functional, cell-based.
The subject of assay [36] is K562. Briefly: Anticancer activity against human K562 cells by MTT assay. The class given is functional, cell-based.
For assay [37], the system named is MCF7. Briefly: Cytotoxicity against human MCF7 cells assessed as reduction in cell viability after 24 hrs by MTT assay. The class given is functional, cell-based. To be noted: MCF7, 24 h.
For assay [38], the system named is HEK-293T. Briefly: Cytotoxicity against HEK293T cells assessed as reduction in cell viability after 24 hrs by MTT assay. The conditions noted are these: Homo sapiens. In kind it is cell-based.
Assay [39] deals with HeLa. Briefly: Cytotoxicity against human HeLa cells assessed as reduction in cell viability after 24 hrs by MTT assay. The class given is functional, cell-based.
Assay [40] has as its system A549. Briefly: Cytotoxicity against human A549 cells assessed as reduction in cell viability after 24 hrs by MTT assay. The class given is functional, cell-based. To be noted: A549, 24 h.
Assay [41] relates to L02. Briefly: Cytotoxicity against human L02 cells assessed as reduction in cell viability after 24 hrs by MTT assay. To be noted: L02, 24 h. The class given is cell-based.
The test system of assay [42] is MCF7. The assay can be described thus: Antiproliferative activity against human MCF7 cells after 48 hrs by MTT assay. The conditions noted are these: MCF7, 48 h. In kind it is functional, cell-based.
In assay [43] the test system is A549. The assay can be described thus: Antiproliferative activity against human A549 cells after 48 hrs by MTT assay. The class given is functional, cell-based. To be noted: A549, 48 h.
The subject of assay [44] is K562. Briefly: Antiproliferative activity against human K562 cells after 48 hrs by MTT assay. In kind it is functional, cell-based. To be noted: K562, 48 h.
For assay [45], the system named is A549. The assay can be described thus: Potency index, ratio of cisplatin IC50 to compound IC50 for antiproliferative activity against human A549 cells. In kind it is functional.
Assay [46] has as its system K562. Briefly: Potency index, ratio of cisplatin IC50 to compound IC50 for antiproliferative activity against human K562 cells. In kind it is functional.
The test system of assay [47] is MCF7. Briefly: Potency index, ratio of cisplatin IC50 to compound IC50 for antiproliferative activity against human MCF7 cells. The class given is functional.
For assay [48], the system named is MDA-MB-231. Briefly: Cytotoxicity against human MDA-MB-231 cells assessed as reduction in cell viability. The class given is functional, cell-based.
For assay [49], the system named is Ishikawa. The assay can be described thus: Cytotoxicity against human Ishikawa cells assessed as reduction in cell viability. In kind it is functional, cell-based.
Assay [50] deals with MCF7. Briefly: Cytotoxicity against human MCF7 cells assessed as reduction in cell viability. In kind it is functional, cell-based.
Assay [51] relates to MCF7. Briefly: Growth inhibition of human MCF7 cells relative to control. The class given is functional.
The test system of assay [52] is MDA-MB-231. Briefly: Growth inhibition of human MDA-MB-231 cells relative to control. In kind it is functional.
The subject of assay [53] is Ishikawa. The assay can be described thus: Growth inhibition of human Ishikawa cells relative to control. The class given is functional.

Turning to `CCN(CC)c1ccc2cc(-c3nc4ccccc4n3C)c(=O)oc2c1`, the GI50 in assay [1], in assay [2], in assay [3], in assay [4], in assay [5] and in assay [6] was 70 to 410 nM in each case. Besides, the GI50 in assay [7], in [8], in assay [9], in assay [10], in [11] and in assay [12] was 70 to 410 nM in each case. The same compound displayed a GI50 in assay [13] of 70 to 410 nM.
As for `COc1ccc(NC(=O)c2ccc(-n3cc(COc4cc(=O)oc5ccccc45)nn3)cc2)cc1OC`, the “Ratio IC50” value in [14], in [15], in assay [17] and in [18] was 20 - 156 in each case. The IC50 in [16] (mda-mb-231) lay within 30 to 91600 nM.
As to `COc1ccc(C(=O)CC(c2c(O)c3ccccc3oc2=O)c2c(O)c3ccccc3oc2=O)c(O)c1`, the GI50 in assay [19] was determined as 33300 nM; in assay [20], 50100 nM; in [21], 35700 nM.
Regarding `Nc1ccc2c(-c3nc4ccc(Br)c(O)c4s3)cc(=O)oc2c1`, the GI50 in [22] turned out to be 330 nM; in [23] it was 240 nM.
Take `O=c1oc2ccccc2cc1-c1nc2ccccc2n1C(=S)Nc1ccccc1`: the GI50 in assay [24], in [25] and in [9] was 50 to 80 nM in each case. Further, the RatioGI50 in [26], in [27] and in assay [28] was 1.5 - 2 each time.
Turning to `COc1ccc(-n2nc(C)n(-n3c(-c4cc5ccccc5oc4=O)cs/c3=N\c3ccc(Cl)cc3)c2=O)cc1`, the “Ratio IC50” value in assay [29], in [30], in assay [32] and in [34] was 1.9 - 3.3 each time. For the same compound, the IC50 in assay [31], in [33], in assay [35] and in [36] was 0.16 to 0.31 µg/mL (≈ 0.287 to 0.556 µM) each time.
Take `CC(C)=CC[C@@H](OCc1ccc(C(=O)/N=C/c2c(Cl)c3ccccc3oc2=O)cc1)C1=CC(=O)c2c(O)ccc(O)c2C1=O`: the IC50 lay in the range of 3250 to 10600 nM in assay [37]; 3250 to 10600 nM in assay [38]; 3250 to 10600 nM in assay [16] (Homo sapiens, MDA-MB-231, 24 h); 3250 to 10600 nM in [39]; 3250 to 10600 nM in [40]; 3250 to 10600 nM in assay [41].
For `CCN(CC)CCOc1ccc(-c2c(-c3ccc(NC(=O)CCCCCCCCC(=O)Nc4ccc(-c5c(-c6ccc(OCCN(CC)CC)cc6)c6ccc(OCCN(CC)CC)cc6oc5=O)cc4)cc3)c(=O)oc3cc(OCCN(CC)CC)ccc23)cc1`, the IC50 in [42], in assay [43] and in assay [44] was 1000 to 3720 nM in each case. Also, the “Ratio IC50” value in assay [45], in assay [46] and in assay [47] was 2.4 - 8.3 throughout.
For `CCOC(=O)c1cc2cc(-c3nc4cc(C)ccn4c3NC(C)(C)C)cc(C(C)C)c2oc1=O`, the IC50 in [48], in [49] and in assay [50] was 14100 to 50000 nM throughout.
In the case of `Cc1cc(=O)oc2cc(Oc3nc(-c4cccs4)cn4c(-c5cccs5)cnc34)ccc12`, the “growth inhibition (GI)” value in assay [51], in assay [52] and in [53] was 10.57 - 92.29% each time.

In general, GI50 refers to the concentration at which growth is held to half of that of the control. Read a low GI50 as more potent growth inhibition. By IC50 is commonly meant the concentration at which inhibition is half-maximal.
